{"source": "DBAASP", "test_in_all_cases": "≥ marks a high value that may be exact or a test limit, other limits are often not marked, values filed in µg/mL are converted to µM", "key": {"[1]": {"test_system": "Escherichia coli NCTC 10418"}, "[2]": {"test_system": "Staphylococcus aureus NCTC 10788"}, "[3]": {"test_system": "Candida albicans NCPF 1467"}, "Bacillus subtilis": {"test_system": "Bacillus subtilis"}, "Salmonella typhimurium": {"test_system": "Salmonella typhimurium"}, "Proteus mirabilis": {"test_system": "Proteus mirabilis"}, "Candida albicans": {"test_system": "Candida albicans"}, "Serratia marcescens": {"test_system": "Serratia marcescens"}, "Escherichia coli": {"test_system": "Escherichia coli"}, "Micrococcus luteus": {"test_system": "Micrococcus luteus"}, "Pseudomonas aeruginosa": {"test_system": "Pseudomonas aeruginosa"}, "Shigella dysenteriae": {"test_system": "Shigella dysenteriae"}, "Klebsiella pneumoniae": {"test_system": "Klebsiella pneumoniae"}, "[4]": {"test_system": "Bacillus subtilis ATCC 6633"}, "[5]": {"test_system": "Escherichia coli ATCC 25922"}, "[6]": {"test_system": "Staphylococcus aureus ATCC 25923"}, "[7]": {"test_system": "Candida albicans ATCC 20032"}, "Saccharomyces cerevisiae": {"test_system": "Saccharomyces cerevisiae"}, "[8]": {"test_system": "Pseudomonas aeruginosa ATCC 15692"}, "[9]": {"test_system": "Escherichia coli ATCC 25726"}, "[10]": {"test_system": "Candida albicans ATCC 90028"}, "[11]": {"test_system": "Pseudomonas aeruginosa ATCC 27853"}, "[12]": {"test_system": "Staphylococcus epidermidis RP62A"}, "[13]": {"test_system": "Klebsiella pneumoniae ATCC 700603"}, "[14]": {"test_system": "Acinetobacter baumannii NM8"}, "[15]": {"test_system": "Stenotrophomonas maltophilia B32/4"}, "[16]": {"test_system": "Staphylococcus epidermidis RP62A/1"}}}
{"molecule": "CC[C@H](C)[C@H](NC(=O)[C@H](CO)NC(=O)[C@H](CC(N)=O)NC(=O)[C@@H](NC(=O)[C@H](Cc1ccccc1)NC(=O)[C@H](C)NC(=O)[C@H](CO)NC(=O)[C@H](C)NC(=O)[C@H](Cc1ccccc1)NC(=O)[C@H](CC(C)C)NC(=O)[C@H](CCCCN)NC(=O)[C@H](C)NC(=O)CNC(=O)[C@H](CC(C)C)NC(=O)[C@H](CCCCN)NC(=O)[C@H](CC(C)C)NC(=O)[C@H](CCCCN)NC(=O)[C@H](CC(C)C)NC(=O)[C@H](CC(C)C)NC(=O)[C@H](Cc1ccccc1)NC(=O)CN)C(C)C)C(=O)N[C@@H](CCCCN)C(N)=O", "note": "[GFLLKLKLGAKLFASAFVNSIK]", "values": [{"measurement": "MIC", "setting": "[1]", "result": 13.5, "unit": "µM"}, {"measurement": "MIC", "setting": "[2]", "result": 6.76, "unit": "µM"}, {"measurement": "MIC", "setting": "[3]", "result": 6.76, "unit": "µM"}]}
{"molecule": "CC[C@H](C)[C@H](NC(=O)CN)C(=O)N[C@@H](Cc1ccccc1)C(=O)N[C@@H](CO)C(=O)N[C@@H](CCCCN)C(=O)N[C@@H](CC(C)C)C(=O)N[C@@H](C)C(=O)NCC(=O)N[C@@H](CCCCN)C(=O)N[C@@H](CCCCN)C(=O)N[C@H](C(=O)N[C@@H](CCCCN)C(=O)N[C@@H](CC(N)=O)C(=O)N[C@@H](CC(C)C)C(=O)N[C@@H](CC(C)C)C(=O)N[C@H](C(=O)N[C@@H](CO)C(=O)NCC(=O)N[C@@H](CC(C)C)C(=O)N[C@@H](CCCCN)C(=O)N[C@@H](CC(N)=O)C(=O)N[C@H](C(=O)NCC(=O)N[C@@H](CCCCN)C(=O)N[C@@H](CCC(=O)O)C(=O)N[C@H](C(=O)NCC(=O)N[C@@H](CCSC)C(=O)N[C@@H](CC(=O)O)C(=O)N[C@H](C(=O)N[C@H](C(=O)N[C@@H](CCCN=C(N)N)C(=O)N[C@H](C(=O)NCC(=O)N[C@H](C(=O)N[C@@H](CC(=O)O)C(=O)N[C@H](C(=O)N[C@@H](C)C(=O)NCC(=O)N[C@H]1CSSC[C@@H](C(=O)O)NC(=O)[C@H](CCC(=O)O)NC(=O)CNC(=O)[C@H](CCCCN)NC(=O)[C@H]([C@@H](C)CC)NC(=O)[C@H](CCCCN)NC1=O)[C@@H](C)CC)[C@@H](C)CC)[C@@H](C)O)C(C)C)C(C)C)C(C)C)[C@@H](C)CC)[C@@H](C)CC)[C@@H](C)CC", "note": "[GIFSKLAGKKIKNLLISGLKNIGKEVGMDVVRTGIDIAGCKIKGEC]", "values": [{"measurement": "MIC", "setting": "Bacillus subtilis", "result": 1.31, "unit": "µM"}, {"measurement": "MIC", "setting": "Salmonella typhimurium", "result": 5.19, "unit": "µM"}, {"measurement": "MIC", "setting": "Proteus mirabilis", "result": "≥ 41.5", "unit": "µM"}, {"measurement": "MIC", "setting": "Candida albicans", "result": 41.5, "unit": "µM"}, {"measurement": "MIC", "setting": "Serratia marcescens", "result": "≥ 41.5", "unit": "µM"}, {"measurement": "MIC", "setting": "Escherichia coli", "result": 5.19, "unit": "µM"}, {"measurement": "MIC", "setting": "Micrococcus luteus", "result": 1.31, "unit": "µM"}, {"measurement": "MIC", "setting": "Pseudomonas aeruginosa", "result": 5.19, "unit": "µM"}, {"measurement": "MIC", "setting": "Shigella dysenteriae", "result": 2.6, "unit": "µM"}, {"measurement": "MIC", "setting": "Klebsiella pneumoniae", "result": 2.6, "unit": "µM"}]}
{"molecule": "CC[C@H](C)[C@H](NC(=O)CN)C(=O)NCC(=O)N[C@H](C(=O)N[C@@H](CCCCN)C(=O)N[C@@H](Cc1ccccc1)C(=O)N[C@@H](CC(C)C)C(=O)NCC(=O)NCC(=O)N[C@H](C(=O)N[C@@H](CCCCN)C(=O)N[C@H](C(=O)N[C@@H](C)C(=O)N[C@@H](CC(C)C)C(=O)N[C@@H](CCCCN)C(=O)NCC(=O)N[C@@H](C)C(=O)N[C@@H](CC(C)C)C(=O)N[C@@H](CCCCN)C(=O)N[C@@H](CCC(=O)O)C(=O)N[C@@H](CC(C)C)C(=O)N[C@@H](C)C(=O)N[C@@H](Cc1ccccc1)C(=O)N[C@H](C(=O)N[C@@H](Cc1ccc(O)cc1)C(=O)N[C@H](C(=O)N[C@@H](CC(N)=O)C(N)=O)C(C)C)[C@@H](C)O)[C@@H](C)O)C(C)C)[C@@H](C)O", "note": "[GIGTKFLGGVKTALKGALKELAFTYVN]", "values": [{"measurement": "MIC", "setting": "[4]", "result": "≥ 35.7", "unit": "µM"}, {"measurement": "MIC", "setting": "[5]", "result": 13.4, "unit": "µM"}, {"measurement": "MIC", "setting": "[6]", "result": 6.72, "unit": "µM"}, {"measurement": "MIC", "setting": "[7]", "result": "≥ 35.7", "unit": "µM"}]}
{"molecule": "CC[C@H](C)[C@H](NC(=O)[C@H](CC(C)C)NC(=O)[C@H](CCCCN)NC(=O)[C@H](CO)NC(=O)[C@H](C)NC(=O)CNC(=O)[C@H](CCCCN)NC(=O)[C@H](CC(C)C)NC(=O)[C@H](C)NC(=O)[C@H](C)NC(=O)[C@H](CCCCN)NC(=O)[C@H](C)NC(=O)[C@H](CC(C)C)NC(=O)[C@H](CC(C)C)NC(=O)CNC(=O)[C@H](Cc1ccccc1)NC(=O)[C@@H](NC(=O)CN)C(C)C)C(=O)N1CCC[C@H]1C(=O)N[C@@H](Cc1cnc[nH]1)C(=O)N[C@@H](CC(C)C)C(=O)N[C@@H](CC(C)C)C(=O)N1CCC[C@H]1C(=O)N[C@@H](CO)C(=O)N[C@@H](CCCN=C(N)N)C(=O)N[C@@H](CCC(N)=O)C(=O)N[C@@H](CCC(N)=O)C(=O)O", "note": "[GVFGLLAKAALKGASKLIPHLLPSRQQ]", "values": [{"measurement": "MIC", "setting": "[5]", "result": 1, "unit": "µM"}, {"measurement": "MIC", "setting": "[6]", "result": 1, "unit": "µM"}, {"measurement": "MIC", "setting": "Saccharomyces cerevisiae", "result": 16, "unit": "µM"}, {"measurement": "MIC", "setting": "Micrococcus luteus", "result": 0.5, "unit": "µM"}, {"measurement": "MIC", "setting": "[8]", "result": 5.66, "unit": "µM"}]}
{"molecule": "CC[C@H](C)[C@H](N)C(=O)N[C@@H](CC(C)C)C(=O)NCC(=O)N[C@@H](CCCCN)C(=O)N[C@@H](CC(C)C)C(=O)N[C@@H](CC(C)C)C(=O)N[C@@H](CO)C(=O)N[C@H](C(=O)N[C@@H](C)C(=O)N[C@@H](C)C(=O)NCC(=O)N[C@@H](CC(C)C)C(=O)N[C@@H](CC(C)C)C(=O)N[C@@H](CCCCN)C(=O)N[C@@H](CC(N)=O)C(=O)N[C@@H](CC(C)C)C(N)=O)[C@@H](C)O", "note": "[ILGKLLSTAAGLLKNL]", "values": [{"measurement": "MIC", "setting": "[9]", "result": "≥ 32", "unit": "µM"}, {"measurement": "MIC", "setting": "[10]", "result": "≥ 32", "unit": "µM"}, {"measurement": "MIC", "setting": "[11]", "result": 128, "unit": "µM"}, {"measurement": "MIC", "setting": "[12]", "result": 16, "unit": "µM"}, {"measurement": "MIC", "setting": "[13]", "result": 128, "unit": "µM"}, {"measurement": "MIC", "setting": "[14]", "result": "≥ 32", "unit": "µM"}, {"measurement": "MIC", "setting": "[6]", "result": 16, "unit": "µM"}, {"measurement": "MIC", "setting": "[15]", "result": "≥ 64", "unit": "µM"}, {"measurement": "MIC", "setting": "[16]", "result": 8, "unit": "µM"}]}
{"molecule": "CC[C@H](C)[C@H](N)C(=O)N[C@@H](CC(C)C)C(=O)NCC(=O)N[C@@H](CCCCN)C(=O)N[C@@H](CC(C)C)C(=O)N[C@@H](CC(C)C)C(=O)N[C@@H](CO)C(=O)N[C@H](C(=O)N[C@@H](C)C(=O)N[C@@H](C)C(=O)NCC(=O)N[C@@H](CC(C)C)C(=O)N[C@@H](CC(C)C)C(=O)N[C@@H](CO)C(=O)N[C@@H](CC(N)=O)C(=O)N[C@@H](CC(C)C)C(N)=O)[C@@H](C)O", "note": "[ILGKLLSTAAGLLSNL]", "values": [{"measurement": "MIC", "setting": "[9]", "result": "≥ 256", "unit": "µM"}, {"measurement": "MIC", "setting": "[10]", "result": "≥ 64", "unit": "µM"}, {"measurement": "MIC", "setting": "[11]", "result": 256, "unit": "µM"}, {"measurement": "MIC", "setting": "[12]", "result": "≥ 64", "unit": "µM"}, {"measurement": "MIC", "setting": "[5]", "result": 150, "unit": "µM"}, {"measurement": "MIC", "setting": "[13]", "result": 256, "unit": "µM"}, {"measurement": "MIC", "setting": "[14]", "result": "≥ 64", "unit": "µM"}, {"measurement": "MIC", "setting": "[6]", "result": 50, "unit": "µM"}, {"measurement": "MIC", "setting": "[15]", "result": "≥ 128", "unit": "µM"}, {"measurement": "MIC", "setting": "[16]", "result": "≥ 32", "unit": "µM"}]}
{"molecule": "CC[C@H](C)[C@H](N)C(=O)N[C@@H](CC(C)C)C(=O)NCC(=O)N1CCC[C@H]1C(=O)N[C@H](C(=O)N[C@@H](CC(C)C)C(=O)NCC(=O)N[C@@H](CC(C)C)C(=O)N[C@H](C(=O)NCC(=O)N[C@@H](CC(N)=O)C(=O)N[C@@H](C)C(=O)N[C@@H](CC(C)C)C(=O)NCC(=O)NCC(=O)N[C@@H](CC(C)C)C(=O)N[C@H](C(=O)N[C@@H](CCCCN)C(=O)N[C@@H](CCCCN)C(=O)N[C@@H](CC(C)C)C(N)=O)[C@@H](C)CC)C(C)C)C(C)C", "note": "[ILGPVLGLVGNALGGLIKKL]", "values": [{"measurement": "MIC", "setting": "[4]", "result": 9.66, "unit": "µM"}, {"measurement": "MIC", "setting": "[5]", "result": "> 51.4", "unit": "µM"}, {"measurement": "MIC", "setting": "[6]", "result": 4.83, "unit": "µM"}, {"measurement": "MIC", "setting": "[7]", "result": 4.83, "unit": "µM"}]}
{"molecule": "CC[C@H](C)[C@H](N)C(=O)N[C@@H](CC(C)C)C(=O)NCC(=O)N1CCC[C@H]1C(=O)N[C@H](C(=O)N[C@@H](CC(C)C)C(=O)NCC(=O)N[C@@H](CC(C)C)C(=O)N[C@H](C(=O)NCC(=O)N[C@@H](CO)C(=O)N[C@@H](C)C(=O)N[C@@H](CC(C)C)C(=O)NCC(=O)NCC(=O)N[C@@H](CC(C)C)C(=O)N[C@H](C(N)=O)[C@@H](C)CC)C(C)C)C(C)C", "note": "[ILGPVLGLVGSALGGLI]", "values": [{"measurement": "MIC", "setting": "[4]", "result": "≥ 64.6", "unit": "µM"}, {"measurement": "MIC", "setting": "[5]", "result": "> 64.6", "unit": "µM"}, {"measurement": "MIC", "setting": "[6]", "result": "> 64.6", "unit": "µM"}, {"measurement": "MIC", "setting": "[7]", "result": "≥ 64.6", "unit": "µM"}]}
